Experimental data as given in patent US20220265845A1, “AMINOTHIOLESTER COMPOUNDS AND USES THEREOF” (ADVANCED BIODESIGN, priority 2019, published 2022).

Experiments:
HL-60 = test: Cell viability assay (Resazurin), cytotoxicity in HL60 cells; format: cell-based; settings: Homo sapiens, HL-60, read-out: IC50 at 48 h, 48 hours of incubation
Protocol: Cell lines. Leukemic cell line, HL-60 (derived from a person with AML-M2), was used for determination of drug efficacy. Cells were obtained from the European Collection of Cell Cultures (ECACC). All cells were cultivated in appropriate media according to supplier recommendations.
Cell Viability assay, 96-well format. Cells were seeded into 96-well cell culture plates at concentrations required to ensure approximately 80% confluence in control (untreated cells) at the end of experiment (0.5×10^4-5×10^4 cell/well).
The sensitivity towards compounds according to the invention was determined using different concentrations of each compound ranging from 0.5 to 100 μM (0.5, 1, 2, 5, 10, 15, 20, 25, 30, 40, 50, 100 μM). Following 48 hours of incubation at 37° C. in a humidified atmosphere containing 5% CO2, the growth-inhibitory effect of compounds was analyzed using Resazurin, according to manufactures instructions.
To ensure good data quality and to minimize impact of pipetting errors, each compounds concentration was assessed based on mean fluorescence intensity from 8 separate wells. Compounds response were quantified by the half maximal inhibitory concentration (IC50) for each particular cell line, and determined by non-linear regression analysis of log-dose/response curves.
Statistical Analysis. Values were expressed as mean±SD or frequencies and proportions. Cell viability curves were determined using four parameter regression line. Differences between groups were determined by unpaired t test, Chi-square, Fisher's exact test or ANOVA, where appropriate. P<0.05 was considered statistically significant. Analysis was performed using GraphPad prism version 5.0 (GraphPad software, San Diego Calif. USA).

Raji cells = test: Cell cytotoxicity by Rituximab-compound 9 (Alamar Blue); settings: treatment of 50 μg/ml
Protocol: 50 000 viable Raji cells were plated in triplicate. […] The cells were incubated for 48 h at which time 20 μl of Alamar Blue (Thermo Fisher Scientific) was added to each well. The plates were incubated for an additional four hours and the fluorescence intensity read on a plate reader using excitation wavelength of 540 nm and an emission wavelength of 620 nm.

Compound	IC50 (HL-60) [µM]	Mean viability of Raji cells in percentage comparing to the non-treated cells (Raji cells)
C=CCOCCN(C)C(C)(C)C#CC(=O)SC [Example 2, S-methyl 4-[2-allyloxyethyl(methyl)amino]-4-methyl-pent-2-ynethioate]	6.5	–
CSC(=O)C#CC(C)(C)N(C)CCOCC1=C(C)CCCC1(C)C [Example 20, S-methyl 4-methyl-4-[methyl-[2-[(2,6,6-trimethylcyclohexen-1-yl)methoxy]ethyl]amino]pent-2-ynethioate]	13.6	–
CSC(=O)C#CC(C)(C)N(C)CCOCc1ccccn1 [Example 10, S-methyl 4-methyl-4-[methyl-[2-(2-pyridylmethoxy)ethyl]amino]pent-2-ynethioate]	5.62	–
CSC(=O)C#CC(C)(C)N(C)CCOCc1cccc(F)c1 [Example 9, S-methyl 4-[2-[(3-fluorophenyl)methoxy]ethyl-methyl-amino]-4-methyl-pent-2-ynethioate]	6.65	–
CSC(=O)C#CC(C)(C)N(C)CCCCOCc1ccccc1 [Example 17, S-methyl 4-((4-(benzyloxy)butyl)(methyl)amino)-4-methylpent-2-ynethioate]	11.3	–
COc1ccc(C(=O)OCCN(C)C(C)(C)C#CC(=O)SC)cc1OC [Example 22, 2-[(1,1-dimethyl-4-methylsulfanyl-4-oxo-but-2-ynyl)-methylamino]ethyl-3,4-dimethoxybenzoate]	15.3	–
CSC(=O)C#CC(C)(C)N(C)CCOCc1ccncc1 [Example 12, S-methyl 4-methyl-4-[methyl-[2-(4-pyridylmethoxy)ethyl]amino]pent-2-ynethioate]	5.68	–
COC(=O)C#CC(C)(C)N(C)C [Example 13, methyl 4-(dimethylamino)-4-methyl-pent-2-ynoate]	42.7	–
CN(C)C(C)(C)C#CC(=O)SCC(=O)OC(C)(C)C [Example 15, tert-butyl 2-((4-(dimethylamino)-4-methylpent-2-ynoyl)thio)acetate]	25	–
CSC(=O)C#CC(C)(C)N(C)CCOCc1ccc2ccccc2c1 [Example 19, S-methyl 4-methyl-4-[methyl-[2-(2-naphthylmethoxy)ethyl]amino]pent-2-ynethioate]	11.3	–
CSC(=O)C#CC(C)(C)N(C)CCOCc1cccc(C)c1 [Example 4, S-methyl 4-methyl-4-[methyl-[2-(m-tolylmethoxy)ethyl]amino]pent-2-ynethioate]	5.62	–
COc1ccc(COCCN(C)C(C)(C)C#CC(=O)SC)cc1 [Example 6, S-methyl 4-[2-[(4-methoxyphenyl)methoxy]ethyl-methyl-amino]-4-methyl-pent-2-ynethioate]	6.48	–
Rituximab: Antibody rituximab (Roche), target CD20 [reference compound]	–	85.50%±2.268%
COC[C@@H]1CCCN1C(C)(C)C#CC(=O)SC [Example 24, (S)—S-methyl 4-(2-(methoxymethyl)pyrrolidin-1-yl)-4-methylpent-2-ynethioate]	20.5	–
CSC(=O)C#CC(C)(C)N(C)CCOC(=O)N(C)CCN(C)C [Example 23, S-methyl 2,5,10,11,11-pentamethyl-6-oxo-7-oxa-2,5,10-triazatetradec-12-yne-14-thioate]	10.6	–
CCOCCN(C)C(C)(C)C#CC(=O)SC [Example 1, S-methyl 4-[2-ethoxyethyl(methyl)amino]-4-methyl-pent-2-ynethioate]	4.98	–
CN(C)C(C)(C)C#CC(=O)SCC(=O)O [Example 16, 2-((4-(dimethylamino)-4-methylpent-2-ynoyl)thio)acetic acid]	22.5	–
CSC(=O)C#CC(C)(C)N(C)[C@@H]1CCC[C@H]1OCc1ccccc1 [Example 26, S-methyl 4-(((1R,2R)-2-(benzyloxy)cyclopentyl)(methyl)amino)-4-methylpent-2-ynethioate]	17.5	–
COc1ccc(COCCN(C)C(C)(C)C#CC(=O)SC)cc1OC [Example 7, S-methyl 4-[2-[(3,4-dimethoxyphenyl)methoxy]ethyl-methyl-amino]-4-methyl-pent-2-ynethioate]	6.08	–
CSC(=O)C#CC(C)(C)N(C)CCO [Example 18, S-methyl 4-((2-hydroxyethyl)(methyl)amino)-4-methylpent-2-ynethioate]	6.75	–
CSC(=O)C#CC(C)(C)N(C)CCOC(C)=O [Example 21, 2-[(1,1-dimethyl-4-methylsulfanyl-4-oxo-but-2-ynyl)-methylamino]ethyl acetate]	12.7	–
CO[C@@H]1CCN(C(C)(C)C#CC(=O)SC)C1 [Example 25, S-methyl 4-[(3R)-3-methoxypyrrolidin-1-yl]-4-methyl-pent-2-ynethioate]	16.5	–
CCOC(=O)C#CC(C)(C)N(C)C [Example 14, ethyl 4-(dimethylamino)-4-methyl-pent-2-ynoate]	40	–
CSC(=O)C#CC(C)(C)N1CCC[C@H]1COCc1ccccc1 [Example 27, (S)—S-methyl 4-(2-((benzyloxy)methyl)pyrrolidin-1-yl)-4-methylpent-2-ynethioate]	10.4	–
CSC(=O)C#CC(C)(C)N(C)CCOCc1cccc(Cl)c1 [Example 8, S-methyl 4-[2-[(3-chlorophenyl)methoxy]ethyl-methyl-amino]-4-methyl-pent-2-ynethioate]	7.07	–
CSC(=O)C#CC(C)(C)N(C)CCOCc1cccnc1 [Example 11, S-methyl 4-methyl-4-[methyl-[2-(3-pyridylmethoxy)ethyl]amino]pent-2-ynethioate]	6.56	–
CSC(=O)C#CC(C)(C)N1CC[C@@H](OCc2ccccc2)C1 [Example 28, (R)—S-methyl 4-(3-(benzyloxy)pyrrolidin-1-yl)-4-methylpent-2-ynethioate]	11.8	–
